The record followed here is PubChem BioAssay AID328 (DTP/NCI, 2004).

Several values for one entry are separate records, joined by “and”; a condition that tells them apart may be missing. Equal entries are not always repeated. Toxic doses and inconclusive results are not listed. Non-standard residues stand in square brackets, D forms with d. Residues, ends and D or L forms follow the SMILES beside them. ξ: configuration not given here. *: point of attachment. ξLac(3-iPr) = CC(C)CC(O)C(=O)O; NMeV = CN[CH](C(=O)O)C(C)C; Cbz = O=C(OCc1ccccc1)*; NMeA = CN[CH](C)C(=O)O; OtBu = CC(C)(C)O*; βAla = NCCC(=O)O

The subject of this assay is BDF1 mice, P388 leukemia ip, median survival T/C. Put plainly: NCI In Vivo Anticancer Drug Screen. Data for tumor model P388 Leukemia (intraperitoneal) in B6D2F1 (BDF1) mice. As to conditions: endpoint: median survival time, higher = longer survival. On the procedure:
The antitumor activity of compounds was measured in mice bearing transplantable tumors. Survival or tumor size were measured and the results are expressed as the measurement made in the treated group (T) divided by the measurement made in the vehicle treated control group (C). The tumor model used in this assay is P388 Leukemia (intraperitoneal) in B6D2F1 (BDF1) mice

Setting [1] is: dose: 50.0 mg/kg/injection, schedule: Q01DX009 (ip), vehicle: Klucel (hydroxypropylcellulose) (HPC).
[2] abbreviates: dose: 200.0 mg/kg/injection, schedule: Q01DX009 (ip), vehicle: Klucel (hydroxypropylcellulose) (HPC).
Setting [3] is: dose: 100.0 mg/kg/injection, schedule: Q01DX009 (ip), vehicle: Klucel (hydroxypropylcellulose) (HPC).
Where [4] appears, read: dose: 100.0 mg/kg/injection, schedule: Q01DX009 (ip), vehicle: saline with Tween-80.
[5] abbreviates: dose: 100.0 mg/kg/injection, schedule: Q04DX003 (ip), vehicle: saline with Tween-80.
[6] abbreviates: dose: 200.0 mg/kg/injection, schedule: Q01DX009 (ip), vehicle: saline with Tween-80.
Where [7] appears, read: dose: 400.0 mg/kg/injection, schedule: Q01DX009 (ip), vehicle: saline with Tween-80.
Setting [8] is: dose: 400.0 mg/kg/injection, schedule: Q04DX003 (ip), vehicle: saline with Tween-80.
Where [9] appears, read: dose: 100.0 mg/kg/injection, schedule: Q04DX003 (ip), vehicle: Klucel (hydroxypropylcellulose) (HPC).
The mark [10] stands for this setting: dose: 200.0 mg/kg/injection, schedule: Q04DX003 (ip), vehicle: Klucel (hydroxypropylcellulose) (HPC).
Setting [11] is: dose: 400.0 mg/kg/injection, schedule: Q04DX003 (ip), vehicle: Klucel (hydroxypropylcellulose) (HPC).
Setting [12] is: dose: 25.0 mg/kg/injection, schedule: Q01DX009 (ip), vehicle: saline with Tween-80.
Where [13] appears, read: dose: 400.0 mg/kg/injection, schedule: Q01DX009 (ip), vehicle: Klucel (hydroxypropylcellulose) (HPC).

On to `CNC(=S)N/N=C/C(C)=N/NC(=S)NC`, for which the T/C runs as follows: (dose: 1.6 mg/kg/injection, schedule: Q01DX009 (ip), vehicle: Klucel (hydroxypropylcellulose) (HPC)) 113 % of control; (dose: 3.12 mg/kg/injection, schedule: Q01DX009 (ip), vehicle: Klucel (hydroxypropylcellulose) (HPC)) 104 % of control; (dose: 12.5 mg/kg/injection, schedule: Q01DX009 (ip), vehicle: Klucel (hydroxypropylcellulose) (HPC)) 104 % of control; under setting [1], 100 % of control; under setting [2], 100 % of control; (dose: 125.0 micrograms/kg/injection, schedule: Q01DX009 (ip), vehicle: saline) 109 % of control. The T/C by setting is: (dose: 250.0 micrograms/kg/injection, schedule: Q01DX009 (ip), vehicle: saline) 109 % of control; (dose: 500.0 micrograms/kg/injection, schedule: Q01DX009 (ip), vehicle: saline) 109 % of control; (dose: 1000.0 micrograms/kg/injection, schedule: Q01DX009 (ip), vehicle: saline) 109 % of control.

For the compound `C1CCNCC1.O=C([CH-]C(=O)C(F)(F)F)c1ccc2c(c1)C(=O)c1ccccc1-2.O=C([CH-]C(=O)C(F)(F)F)c1ccc2c(c1)C(=O)c1ccccc1-2.O=C([CH-]C(=O)C(F)(F)F)c1ccc2c(c1)C(=O)c1ccccc1-2.O=C([CH-]C(=O)C(F)(F)F)c1ccc2c(c1)C(=O)c1ccccc1-2.[Eu+3]`, the T/C is, setting by setting: under setting [3], 102 % of control; under setting [2], 102 % of control.

Take `CCC(C)C1NC(=O)C2CCCN2C(=O)C(CC(C)C)OC(=O)CCNC(=O)C(C)N(C)C(=O)C(C(C)C)N(C)C1=O` (centres undefined) (cyclo([ξLac(3-iPr)]PI[NMeV][NMeA][βAla]); configuration not given here): the T/C (dose: 0.82 mg/kg/injection, schedule: Q01DX009 (ip), vehicle: saline) is 115 % of control; the T/C (dose: 1.25 mg/kg/injection, schedule: Q01DX009 (ip), vehicle: saline) is 91 % of control; the T/C (dose: 1.8 mg/kg/injection, schedule: Q01DX009 (ip), vehicle: saline) is 107 % of control; the T/C (dose: 2.5 mg/kg/injection, schedule: Q01DX009 (ip), vehicle: saline) is 96 % of control; the T/C (dose: 5.0 mg/kg/injection, schedule: Q01DX009 (ip), vehicle: saline) is 108 % of control; the T/C (dose: 10.0 mg/kg/injection, schedule: Q01DX009 (ip), vehicle: saline) was 104 % of control.

On to `O=c1cc(Cl)c2ccccc2[nH]1`, for which the T/C reads like this: under setting [4], 100 % of control; under setting [5], 109 % of control; under setting [6], 91 % of control; (dose: 200.0 mg/kg/injection, schedule: Q04DX003 (ip), vehicle: saline with Tween-80) 100 % of control; under setting [7], 100 % of control; under setting [8], 100 % of control.

Take `CC(c1ccccc1)N1COc2ccc3ccccc3c2C1` (centres undefined): the T/C is 100 % of control under setting [4], 104 % of control under setting [6] and 113 % of control under setting [7].

Regarding `NCCNc1ccc(NCCN)c2c1C(=O)c1ccccc1C2=O`, the T/C (dose: 6.25 mg/kg/injection, schedule: Q01DX009 (ip), vehicle: other) is 214 % of control.

In the case of `CCC(C)C(NC(=O)OCc1ccccc1)C(=O)NC(C(=O)NC(CCC(=O)OC(C)(C)C)C(=O)OC)C(C)C` (stereo not drawn) (Cbz-Ile-Val-Glu(OtBu)-OMe; configuration not given here), the T/C reads like this: (dose: 100.0 mg/kg/injection, schedule: Q04DX003 (ip), vehicle: saline sonified) 90 % of control; (dose: 200.0 mg/kg/injection, schedule: Q04DX003 (ip), vehicle: saline sonified) 90 % of control; (dose: 400.0 mg/kg/injection, schedule: Q04DX003 (ip), vehicle: saline sonified) 95 % of control.

Take `CC(C)OC(=O)C1(N)CCCC1`: the T/C is, setting by setting: (dose: 50.0 mg/kg/injection, schedule: Q01DX009 (ip), vehicle: saline) 109 % of control; (dose: 100.0 mg/kg/injection, schedule: Q01DX009 (ip), vehicle: saline) 109 % of control; (dose: 200.0 mg/kg/injection, schedule: Q01DX009 (ip), vehicle: saline) 86 % of control; under setting [8], 113 % of control; (dose: 400.0 mg/kg/injection, schedule: Q04DX003 (ip), vehicle: saline) 116 % of control; (dose: 600.0 mg/kg/injection, schedule: Q04DX003 (ip), vehicle: saline with Tween-80) 86 % of control. In addition, the T/C (dose: 600.0 mg/kg/injection, schedule: Q04DX003 (ip), vehicle: saline) was 91 % of control.

As to `CN=S(=O)(OCC#CCOS(=O)(=NC)c1ccc(C)cc1)c1ccc(C)cc1` (centres undefined), the T/C by setting is: (dose: 50.0 mg/kg/injection, schedule: Q01DX009 (ip), vehicle: saline + alcohol) 151 % of control; (dose: 100.0 mg/kg/injection, schedule: Q01DX009 (ip), vehicle: saline + alcohol) 87 % of control; under setting [4], 94 % of control.

Turning to `CSc1ccccc1C(=O)NNS(=O)(=O)c1ccc(C)cc1`, the T/C is 91 % of control under setting [9], 104 % of control under setting [10] and 100 % of control under setting [11].

As to `COC(=O)c1[nH]cnc1/N=N\N(CCF)CCF`, the T/C reads like this: (dose: 16.5 mg/kg/injection, schedule: Q01DX009 (ip), vehicle: saline with Tween-80) 179 % of control; under setting [12], 188 % of control; (dose: 37.5 mg/kg/injection, schedule: Q01DX009 (ip), vehicle: saline with Tween-80) 166 % of control; (dose: 44.0 mg/kg/injection, schedule: Q04DX003 (ip), vehicle: saline with Tween-80) 168 % of control; (dose: 66.0 mg/kg/injection, schedule: Q04DX003 (ip), vehicle: saline with Tween-80) 218 % of control; under setting [5], 86 % of control.

With `O=C(O)c1ccc(C(=O)c2ccccc2C(=O)O)cc1`, the T/C reads like this: (dose: 100.0 mg/kg/injection, schedule: Q01DX001 (ip), vehicle: Klucel (hydroxypropylcellulose) (HPC)) 95 % of control; under setting [3], 91 % of control; under setting [9], 104 % of control; (dose: 200.0 mg/kg/injection, schedule: Q01DX001 (ip), vehicle: Klucel (hydroxypropylcellulose) (HPC)) 100 % of control; under setting [2], 95 % of control; under setting [10], 104 % of control. In addition, the T/C (dose: 400.0 mg/kg/injection, schedule: Q01DX001 (ip), vehicle: Klucel (hydroxypropylcellulose) (HPC)) is 95 % of control; the T/C under setting [13] was 91 % of control; the T/C under setting [11] is 109 % of control.

With `COc1ccc2nc3cc(Cl)ccc3c(NCCNCCNCCNc3c4ccc(Cl)cc4nc4ccc(OC)cc34)c2c1`, the T/C runs as follows: (dose: 12.5 mg/kg/injection, schedule: Q01DX009 (ip), vehicle: saline with Tween-80) 151 % of control; under setting [12], 171 % of control; (dose: 50.0 mg/kg/injection, schedule: Q01DX009 (ip), vehicle: saline with Tween-80) 161 % of control.

Take `COc1ccc(OC(=O)Nc2ccccc2OC)cc1`: the T/C is 91 % of control under setting [9], 91 % of control under setting [10] and 87 % of control under setting [11].

As for `CCOC(=S)SCC(=O)Nc1ccc(Cl)cc1`, the T/C was 110 % of control (dose: 75.0 mg/kg/injection, schedule: Q01DX009 (ip), vehicle: saline with Tween-80); 89 % of control (dose: 150.0 mg/kg/injection, schedule: Q01DX009 (ip), vehicle: saline with Tween-80); 89 % of control (dose: 300.0 mg/kg/injection, schedule: Q01DX009 (ip), vehicle: saline with Tween-80).

For `N#CCC(N)=C(C#N)C#N`, the T/C (dose: 25.0 mg/kg/injection, schedule: Q01DX009 (ip), vehicle: Klucel (hydroxypropylcellulose) (HPC)) was 100 % of control; the T/C (dose: 25.0 mg/kg/injection, schedule: Q04DX003 (ip), vehicle: Klucel (hydroxypropylcellulose) (HPC)) was 95 % of control; the T/C under setting [1] is 87 % of control; the T/C (dose: 50.0 mg/kg/injection, schedule: Q04DX003 (ip), vehicle: Klucel (hydroxypropylcellulose) (HPC)) is 104 % of control; the T/C under setting [3] was 95 % of control; the T/C under setting [9] was 100 % of control and 104 % of control.

On to `O=[N+]([O-])c1ccc(SNc2ccc(O)cc2)cc1[N+](=O)[O-]`, for which the T/C reads like this: under setting [3], 100 % of control; under setting [9], 100 % of control; under setting [2], 90 % of control; under setting [10], 104 % of control; under setting [13], 109 % of control; under setting [11], 104 % of control.
